Measured values published in paper PMC9496819 (Cancers, 2022).

Key:
HOSE6.3 cells = assay: Presto Blue cell viability assay in non-tumoral cells, single drugs and Paclitaxel combinations (Chou–Talalay, Bliss, HSA analysis); settings: for IC50 (in words) / IC50: 48 h; for IC50 (in words): considered concentration ranges; for Cellular viability (%) Media: HOSE6.3, 48 h, alone or combined
Description: (§1) To determine the effect of single and combination drug treatments on the cellular viability of cell lines, a resazurin-based assay—Presto Blue (PB)—was performed. Briefly, 5 × 10^3 cells/well were seeded into a 96-well plate in complete media, incubated at 37 °C and 5% CO2 and allowed to adhere overnight prior to drug exposure. After 24 h, cells were exposed to increasing concentrations of drugs and incubated under the same conditions. After 48 h, culture medium was removed, and 50 μL/well of PrestoBlue^TM Cell Viability Reagent 1× (ThermoFisher Scientific) was added. Cells were incubated for 45 min, protected from light, at 37 °C and 5% CO2.
(§2) The IC50 values were first obtained for each drug alone for OVCAR8, OVCAR8 PTX R P and HOSE6.3 cell lines. […] A mutually exclusive model, assuming that drugs act through […] mechanisms, was used for this analysis. […] The CI is a quantitative representation of pharmacological interactions (i.e., CI < 1, synergism; =1, additive interactions; and >1, antagonism), plotted on y-axis as a function of effect level (Fa) on the x-axis to assess drug synergism between drug combinations. Additionally, we estimated the expected drug combination responses based on the Bliss Independence and Highest Single Agent (HSA) reference models using SynergyFinder 2.0 Software. Positive and negative synergy score values denote synergy and antagonism, respectively. The cNMF algorithm implemented in SynergyFinder 2.0 was used for estimation of outlier measurements.

[1] = as above; settings: human, HOSE6.3 cells (non-tumoral)
Description: as §1, §2

OVCAR8 PTX R P cells = assay: Presto Blue cell viability assay, single drugs and Paclitaxel combinations (Chou–Talalay, Bliss, HSA analysis); settings: for Cellular viability (%) Media: alone or combined
Description: as §1, §2

OVCAR8 cells = assay: as above; settings: for Cellular viability (%) Media: OVCAR8, 48 h, alone or combined
Description: as §1, §2

[2] = OVCAR8 PTX R P, 48 h, 0.25 x IC50 of each drug
[3] = OVCAR8 PTX R P, 48 h, 0.5 x IC50 of each drug
[4] = OVCAR8 PTX R P, 48 h, 2 x IC50 of each drug
[5] = OVCAR8 PTX R P, 48 h, IC50 of each drug

In the case of `O=C(O)C[C@H](O)C[C@H](O)/C=C/c1c(C2CC2)nc2ccccc2c1-c1ccc(F)cc1` [Pitavastatin], the “IC50 (in words)” value (HOSE6.3 cells; HOSE6.3, single agent) is reported as “not obtaining IC50 values in the considered concentration ranges”, the viability at 48 h, 0.25 x IC50 [1] is reported as 81.8% and the viability at 48 h, 0.5 x IC50 [1] is reported as 76.5%. For the same compound, the viability at 48 h, 1 x IC50 [1] was 68.5%, the viability at 48 h, 2 x IC50 [1] was 65.9% and the viability at 48 h, 4 x IC50 [1] was 61.4%. The IC50 (OVCAR8 PTX R P cells; Homo sapiens, OVCAR-8, 48 h) was 0.85 ± 0.142 µM, the “Cellular viability (%) Media” value (OVCAR8 PTX R P cells; [2]) was 59.998% and the “Cellular viability (%) Media” value (OVCAR8 PTX R P cells; [3]) was 50.426%. For the same compound, the “Cellular viability (%) Media” value (OVCAR8 PTX R P cells; [4]) was 28.330%, the “Cellular viability (%) Media” value (OVCAR8 PTX R P cells; [5]) was 45.406% and the IC50 (OVCAR8 cells; Homo sapiens, OVCAR-8, 48 h) was 0.801 ± 0.061 µM. The “Cellular viability (%) Media” value (OVCAR8 cells; 0.25 x IC50 of each drug) was 61.378%, the “Cellular viability (%) Media” value (OVCAR8 cells; 0.5 x IC50 of each drug) was 51.912% and the “Cellular viability (%) Media” value (OVCAR8 cells; 2 x IC50 of each drug) was 27.970%. For the same compound, the “Cellular viability (%) Media” value (OVCAR8 cells; IC50 of each drug) was 45.624%.
With `NCCCC(O)(P(=O)(O)O)P(=O)(O)O` [Alendronate] the “IC50 (in words)” value (HOSE6.3 cells; HOSE6.3, single agent) was “not obtaining IC50 values in the considered concentration ranges”, the IC50 (OVCAR8 PTX R P cells; Homo sapiens, OVCAR-8, 48 h) was 196 ± 20.2 µM and the IC50 (OVCAR8 cells; Homo sapiens, OVCAR-8, 48 h) was 219 ± 13.6 µM.
With Ivermectin the “Cellular viability (%) Media” value (HOSE6.3 cells; 0.5 x IC50 of each drug) was 99.694%, the “Cellular viability (%) Media” value (HOSE6.3 cells; 2 x IC50 of each drug) was 0.539% and the “Cellular viability (%) Media” value (HOSE6.3 cells; 4 x IC50 of each drug) was 0.000%. For the same compound, the “Cellular viability (%) Media” value (HOSE6.3 cells; IC50 of each drug) was 53.462%, the IC50 (HOSE6.3 cells; HOSE6.3, single agent) was 12.6 ± 2.19 µM and the “Cellular viability (%) Media” value (OVCAR8 PTX R P cells; [2]) was 81.152%. For the same compound, the “Cellular viability (%) Media” value (OVCAR8 PTX R P cells; [3]) was 65.026%, the “Cellular viability (%) Media” value (OVCAR8 PTX R P cells; [4]) was 0.966% and the “Cellular viability (%) Media” value (OVCAR8 PTX R P cells; OVCAR8 PTX R P, 48 h, 4 x IC50 of each drug) was 1.370%. The “Cellular viability (%) Media” value (OVCAR8 PTX R P cells; [5]) was 47.496%, the IC50 (OVCAR8 PTX R P cells; OVCAR8 PTX R P, single agent, 48 h) was 15.5 ± 1.86 µM and the “Cellular viability (%) Media” value (OVCAR8 cells; 0.25 x IC50 of each drug) was 77.004%. For the same compound, the “Cellular viability (%) Media” value (OVCAR8 cells; 0.5 x IC50 of each drug) was 69.934%, the “Cellular viability (%) Media” value (OVCAR8 cells; 2 x IC50 of each drug) was 0.759% and the “Cellular viability (%) Media” value (OVCAR8 cells; 4 x IC50 of each drug) was 0.867%. The “Cellular viability (%) Media” value (OVCAR8 cells; IC50 of each drug) was 46.412% and the IC50 (OVCAR8 cells; OVCAR8, single agent, 48 h) was 16 ± 2.91 µM.
`CCC(C)n1ncn(-c2ccc(N3CCN(c4ccc(OCC5COC(Cn6cncn6)(c6ccc(Cl)cc6Cl)O5)cc4)CC3)cc2)c1=O` (stereo not drawn) [Itraconazole] gave an IC50 (HOSE6.3 cells; Homo sapiens) of 38.6 ± 5.11 µM, an IC50 (OVCAR8 PTX R P cells; Homo sapiens, OVCAR-8, 48 h) of 35.6 ± 0.48 µM and an IC50 (OVCAR8 cells; Homo sapiens, OVCAR-8, 48 h) of 39.1 ± 3.38 µM.
With `CN(C)C(=N)N=C(N)N` [Metformin] the “IC50 (in words)” value (HOSE6.3 cells; HOSE6.3, single agent) was “not obtaining IC50 values in the considered concentration ranges”, the IC50 (OVCAR8 PTX R P cells; Homo sapiens, OVCAR-8, 48 h) was 1460 ± 193 µM and the IC50 (OVCAR8 cells; Homo sapiens, OVCAR-8, 48 h) was 1500 ± 169 µM.
